# According to PubChem BioAssay (NCI):
#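 Compound exposure: 48 hours, 5 concentrations, 96-well plates. The concentration for full growth arrest is given as TGI.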
# Columns and labels:
# Test in all cases: growth of human tumour cells (NCI), 48 h
# SF-295 CNS = system: SF-295 CNS
# UO-31 renal = system: UO-31 renal
# NCI-H23 lung = system: NCI-H23 lung
# HCC-2998 colon = system: HCC-2998 colon
# NCI-H522 lung = system: NCI-H522 lung
# IGROV1 ovarian = system: IGROV1 ovarian
# CCRF-CEM leukemia = system: CCRF-CEM leukemia
# PC-3 prostate = system: PC-3 prostate
# K-562 leukemia = system: K-562 leukemia
# HOP-62 NSCLC = system: HOP-62 NSCLC
Structure (SMILES),TGI (SF-295 CNS) [µM],TGI (UO-31 renal) [µM],TGI (NCI-H23 lung) [µM],TGI (HCC-2998 colon) [µM],TGI (NCI-H522 lung) [µM],TGI (IGROV1 ovarian) [µM],TGI (CCRF-CEM leukemia) [µM],TGI (PC-3 prostate) [µM],TGI (K-562 leukemia) [µM],TGI (HOP-62 NSCLC) [µM]
O=C(/C=C/c1cc2ccccc2o1)N1CCN(c2ccccn2)CC1,> 100,> 100,> 100,> 100,> 100,> 100,> 100,> 100,> 100,> 100
Cc1[nH]nc(C(F)(F)F)c1N=NN1CCOCC1,28.1,7.04,15.5,6.11,8.7,22.6,10.8,24.8,2.4,28.5
